According to article doi:10.1101/2023.12.06.570349v1 (biorxiv, 2023):
Like-named read-outs stand apart in the source and are kept apart here.

Key:
H3R-365 [1] = target: T1, H3R-365 (Homo sapiens, UniProt Q9Y5N1); test: cell-based; set-up: species or system HEK293-EPAC stably expressing H3R isoform; conditions: for Emax: HEK293-EPAC stably expressing H3R isoform, read-out: H3R-365 α
H3R-445 [2] = target: T2, H3R-445 (Homo sapiens, UniProt Q9Y5N1); test: cell-based; set-up: species or system HEK293-EPAC stably expressing H3R isoform; conditions: for Emax: HEK293-EPAC stably expressing H3R isoform, read-out: H3R-445 α
H3R-453 [3] = target: T3, H3R-453 (Homo sapiens, UniProt Q9Y5N1); test: cell-based; set-up: species or system HEK293-EPAC stably expressing H3R isoform; conditions: for Emax: HEK293-EPAC stably expressing H3R isoform, read-out: H3R-453 α
H3R-373 [4] = target: T4, H3R-373 (Homo sapiens, UniProt Q9Y5N1, INS445KMKKKTCL); test: cell-based; set-up: species or system HEK293-EPAC stably expressing H3R isoform; conditions: for Emax: HEK293-EPAC stably expressing H3R isoform, read-out: H3R-373 α
H3R-413 [5] = target: T5, H3R-413 (Homo sapiens, UniProt Q9Y5N1, DEL274-305); test: biochemical
H3R-413 [6] = target: T5, H3R-413; test: cell-based; set-up: species or system HEK293-EPAC stably expressing H3R isoform; conditions: for Emax: HEK293-EPAC stably expressing H3R isoform, read-out: H3R-413 α
H3R-415 [7] = target: T6, H3R-415 (Homo sapiens, UniProt Q9Y5N1); test: cell-based; set-up: species or system HEK293-EPAC stably expressing H3R isoform; conditions: for Emax: HEK293-EPAC stably expressing H3R isoform, read-out: H3R-415 α
H3R-413 [8] = target: T5, H3R-413; test: cell-based; set-up: species or system HEK293-EPAC stably expressing H3R isoform
H3R-373 [9] = target: T4, H3R-373
H3R-445 [10] = target: T2, H3R-445; test: biochemical
H3R-415 [11] = target: T6, H3R-415; test: biochemical
H3R-373 [12] = target: T4, H3R-373; set-up: species or system HEK293-EPAC stably expressing H3R isoform; conditions: agonist
H3R-365 [13] = target: T1, H3R-365; test: biochemical
H3R-445 [14] = target: T2, H3R-445; test: cell-based; set-up: species or system HEK293-EPAC stably expressing H3R isoform
H3R-415 [15] = target: T6, H3R-415; test: cell-based; set-up: species or system HEK293-EPAC stably expressing H3R isoform
H3R-365 [16] = target: T1, H3R-365; test: cell-based; set-up: species or system HEK293-EPAC stably expressing H3R isoform
H3R-365 [17] = target: T1, H3R-365; test: cell-based; set-up: species or system HEK293-EPAC stably expressing H3R isoform; remark: listed apart in the source
H3R-415 [18] = target: T6, H3R-415; test: cell-based; set-up: species or system HEK293-EPAC stably expressing H3R isoform; remark: listed apart in the source
H3R-445 [19] = target: T2, H3R-445; test: cell-based; set-up: species or system HEK293-EPAC stably expressing H3R isoform; remark: listed apart in the source
H3R-445 [20] = target: T2, H3R-445; test: cell-based; conditions: HEK293-EPAC stably expressing H3R isoform, read-out: H3R-445 α
H3R-453 [21] = target: T3, H3R-453; test: cell-based; conditions: HEK293-EPAC stably expressing H3R isoform, read-out: H3R-453 α
H3R-415 [22] = target: T6, H3R-415; test: cell-based; conditions: HEK293-EPAC stably expressing H3R isoform, read-out: H3R-415 α
H3R-365 [23] = target: T1, H3R-365; test: cell-based; conditions: HEK293-EPAC stably expressing H3R isoform, read-out: H3R-365 α
[24] = inverse agonism, pitolisant = -1, antagonist

Row | SMILES | Emax (H3R-365 [1]) [%] | Emax (H3R-445 [2]) [%] | Emax (H3R-373 [4]) [%] | Ki (H3R-413 [5]) [nM] | Emax (H3R-413 [6]) [%] | Emax (H3R-415 [7]) [%] | EC50 (H3R-413 [8]) [nM] | Ki (H3R-373 [9]) [nM] | H3R-373 pEC50 (H3R-373 [12]) [M] | further results
1 | N=C(N)SCCc1cnc[nH]1 [imetit, 2-(3H-imidazol-4-yl)ethylsulfanylmethanimidamide] | 110 ± 20 | 90 ± 10 | 80 ± 30 | 0.631 | 100 | 70 | 0.316 | 0.126 |  | Emax (H3R-453 [3]): 100 ± 30%
2 | CN(C)CCCCCc1c[nH]cn1 [dimethyl-impentamine, 5-(3H-imidazol-4-yl)-N,N-dimethylpentan-1-amine] | 100 ± 20 | 60 ± 20 | 70 ± 10 | 31.6 | 50 ± 20 | 40 ± 10 | 79.4 | 20 | 7.9 ± 0.4 | Ki (H3R-445 [10]): 25.1 nM; Ki (H3R-415 [11]): 31.6 nM; Ki (H3R-365 [13]): 20 nM
3 | c1nc(CC2CCNCC2)c[nH]1 [Immepip] |  |  |  |  |  |  | 0.2 |  | 10.1 ± 0.2 | H3R-365 α (H3R-365 [1]; relative to histamine, agonist): 1.1 ± 0.1%; H3R-445 α (H3R-445 [2]; relative to histamine, agonist): 1.0 ± 0.0%; H3R-453 α (H3R-453 [3]; relative to histamine, agonist): 0.9 ± 0.1%; H3R-373 α (H3R-373 [4]; relative to histamine, agonist): 0.8 ± 0.2%; H3R-413 α (H3R-413 [6]; relative to histamine, agonist): 1.0 ± 0.0%; H3R-415 α (H3R-415 [7]; relative to histamine, agonist): 0.9 ± 0.1%
4 | S=C(NC1CCCCC1)N1CCC(c2c[nH]cn2)CC1 [thioperamide, N-cyclohexyl-4-(3H-imidazol-4-yl)piperidine-1-carbothioamide] |  |  |  |  |  |  |  |  |  | Emax (H3R-445 [14]; HEK293-EPAC stably expressing H3R isoform, read-out: H3R-445 α): -90 ± 10%; Emax (H3R-415 [15]; HEK293-EPAC stably expressing H3R isoform, read-out: H3R-415 α): -80 ± 80%; Emax (H3R-365 [16]; HEK293-EPAC stably expressing H3R isoform, read-out: H3R-365 α): -100%
5 | O=C(c1ccc(CN2CCOCC2)cc1)N1CCN(C2CC2)CC1 [bavisant, (4-Cyclopropyl-piperazin-1-yl)-(4-morpholin-4-ylmethyl-phenyl)-methanone] |  |  |  | 2.51 |  |  |  | 79.4 |  | EC50 (H3R-365 [17]): 3.98 nM; EC50 (H3R-415 [18]): 0.794 nM; EC50 (H3R-445 [19]): 1 nM; H3R-445 α (H3R-445 [14]; [24]): -1.0 ± 0,3%; H3R-415 α (H3R-415 [15]; [24]): -0.9 ± 0.0%; H3R-365 α (H3R-365 [16]; [24]): -1.0 ± 0.0%
6 | N=C(N)SCCCc1cnc[nH]1 [VUF8328, 3-(1H-imidazol-5-yl)propyl carbamimidothioate] | 70 ± 20 | 80 ± 20 | 70 ± 30 | 1.26 | 80 ± 10 | 50 ± 20 |  | 0.316 | 9.0 ± 0.8 | Emax (H3R-453 [3]): 90 ± 40%; Ki (H3R-445 [10]): 1.26 nM; Ki (H3R-415 [11]): 1.58 nM; Ki (H3R-365 [13]): 0.794 nM
7 | C[C@@H](N)Cc1cnc[nH]1 [RAMH, (2R)-1-(3H-imidazol-4-yl)propan-2-amine] |  |  |  |  |  |  |  |  |  | Emax (H3R-445 [20]): 100%; Emax (H3R-453 [21]): 140 ± 10%; Emax (H3R-415 [22]): 110 ± 40%; Emax (H3R-365 [23]): 100 ± 20%
